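Abbreviation: GI50, concentration required for 50% inhibition of growth. TGI is the concentration that stops growth completely.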
Experiments:
Assay in all cases: NCI tumour cell line growth inhibition, 384-well format
[1] = tested on: M14 melanoma
[2] = tested on: HOP-92 NSCLC
[3] = tested on: SW-620 colon
[4] = tested on: SK-MEL-5 melanoma
[5] = tested on: SF-268 CNS
[6] = tested on: MOLT-4 leukemia
[7] = tested on: SF-539 CNS
[8] = tested on: HOP-62 NSCLC
[9] = tested on: CAKI-1 renal
[10] = tested on: SK-OV-3 ovarian
[11] = tested on: HS 578T breast
[12] = tested on: MCF7 breast
[13] = tested on: LOX IMVI melanoma
[14] = tested on: BT-549 breast
[15] = tested on: UO-31 renal
[16] = tested on: K-562 leukemia
[17] = tested on: NCI-H460 NSCLC
[18] = tested on: NCI-H322M lung
[19] = tested on: NCI-H23 lung
[20] = tested on: MDA-MB-435 melanoma
[21] = tested on: 786-0 renal
[22] = tested on: HCC-2998 colon
[23] = tested on: NCI/ADR-RES ovarian
[24] = tested on: HCT-15 colon
[25] = tested on: MDA-MB-468 breast
[26] = tested on: SK-MEL-28 melanoma
[27] = tested on: RPMI-8226 leukemia
[28] = tested on: PC-3 prostate
[29] = tested on: NCI-H522 lung
[30] = tested on: HT29 colon
[31] = tested on: UACC-257 melanoma
[32] = tested on: COLO 205 colon
[33] = tested on: SNB-19 CNS
[34] = tested on: MDA-MB-231 breast
[35] = tested on: MALME-3M melanoma
[36] = tested on: UACC-62 melanoma
[37] = tested on: EKVX NSCLC
[38] = tested on: HL-60(TB) leukemia
[39] = tested on: DU-145 prostate
[40] = tested on: KM12 colon
[41] = tested on: CCRF-CEM leukemia
[42] = tested on: OVCAR-5 ovarian
[43] = tested on: RXF 393 renal
[44] = tested on: IGROV1 ovarian
[45] = tested on: U251 glioblastoma
[46] = tested on: SN12C renal
[47] = tested on: T-47D breast
[48] = tested on: OVCAR-4 ovarian
[49] = tested on: NCI-H226 lung
[50] = tested on: SNB-75 CNS
[51] = tested on: OVCAR-3 ovarian
[52] = tested on: A498 renal
[53] = tested on: ACHN renal
[54] = tested on: TK-10 renal
[55] = tested on: OVCAR-8 ovarian
[56] = tested on: HCT-116 colon
[57] = tested on: SF-295 CNS
[58] = tested on: A549 NSCLC

For CN1CCN(c2ccc(C(=O)Nc3cc(-c4cccc(NS(=O)(=O)c5ccccc5)c4)[nH]n3)cc2)CC1, the GI50 [1] was 1650 nM, the TGI [1] was 3030 nM and the GI50 [2] was 1370 nM. The TGI [2] was 2870 nM, the GI50 [3] was 1840 nM and the TGI [3] was 3330 nM. For the same molecule, the GI50 [4] was 1460 nM, the TGI [4] was 2790 nM and the GI50 [5] was 1230 nM. For the same molecule, the TGI [5] was 2700 nM, the GI50 [6] was 1200 nM and the TGI [6] was 2440 nM. The GI50 [7] was 838 nM, the TGI [7] was 2110 nM and the GI50 [8] was 1590 nM. For the same molecule, the TGI [8] was 3310 nM, the GI50 [9] was 1670 nM and the TGI [9] was 3080 nM. It also gave a GI50 [10] of 1160 nM, a TGI [10] of 2440 nM and a GI50 [11] of 1310 nM. It also gave a TGI [11] of 2600 nM, a GI50 [12] of 1410 nM and a TGI [12] of 2920 nM. For the same molecule, the GI50 [13] was 1620 nM, the TGI [13] was 3010 nM and the GI50 [14] was 1170 nM. The TGI [14] was 2420 nM, the GI50 [15] was 3690 nM and the TGI [15] was 10400 nM. For the same molecule, the GI50 [16] was 1450 nM, the TGI [16] was 2790 nM and the GI50 [17] was 1690 nM. The TGI [17] was 3150 nM, the GI50 [18] was 1930 nM and the TGI [18] was 4220 nM. It also gave a GI50 [19] of 1910 nM, a TGI [19] of 3750 nM and a GI50 [20] of 1960 nM. The TGI [20] was 3410 nM, the GI50 [21] was 1560 nM and the TGI [21] was 2980 nM. The GI50 [22] was 1470 nM, the TGI [22] was 3010 nM and the GI50 [23] was greater than 100000 nM. It also gave a TGI [23] greater than 100000 nM, a GI50 [24] of 3500 nM and a TGI [24] of 8850 nM. The GI50 [25] was 2090 nM, the TGI [25] was 3620 nM and the GI50 [26] was 2170 nM. It also gave a TGI [26] of 3630 nM, a GI50 [27] of 1450 nM and a TGI [27] of 2780 nM. For the same molecule, the GI50 [28] was 2570 nM, the TGI [28] was 7410 nM and the GI50 [29] was 1880 nM. For the same molecule, the TGI [29] was 3550 nM, the GI50 [30] was 1520 nM and the TGI [30] was 2930 nM. It also gave a GI50 [31] of 1780 nM, a TGI [31] of 3180 nM and a GI50 [32] of 891 nM. For the same molecule, the TGI [32] was 2140 nM, the GI50 [33] was 2020 nM and the TGI [33] was 4480 nM. The GI50 [34] was 1520 nM, the TGI [34] was 3300 nM and the GI50 [35] was 1640 nM. The TGI [35] was 3010 nM, the GI50 [36] was 1800 nM and the TGI [36] was 3200 nM. The GI50 [37] was 2100 nM, the TGI [37] was 4870 nM and the GI50 [38] was 2480 nM. It also gave a TGI [38] of 3960 nM, a GI50 [39] of 2330 nM and a TGI [39] of 4970 nM. The GI50 [40] was 25 nM, the TGI [40] was 1380 nM and the GI50 [41] was 1620 nM. The TGI [41] was 2990 nM, the GI50 [42] was 1890 nM and the TGI [42] was 3940 nM. The GI50 [43] was 1240 nM, the TGI [43] was 2520 nM and the GI50 [44] was 628 nM. The TGI [44] was 1930 nM, the GI50 [45] was 1640 nM and the TGI [45] was 3030 nM. It also gave a GI50 [46] of 2440 nM, a TGI [46] of 8740 nM and a GI50 [47] of 1370 nM. For the same molecule, the TGI [47] was 2690 nM, the GI50 [48] was 1790 nM and the TGI [48] was 4070 nM. The GI50 [49] was 111 nM, the TGI [49] was 11600 nM and the GI50 [50] was 949 nM. For the same molecule, the TGI [50] was 2370 nM, the GI50 [51] was 1620 nM and the TGI [51] was 3030 nM. The GI50 [52] was 2070 nM, the TGI [52] was 3530 nM and the GI50 [53] was 2150 nM. It also gave a TGI [53] of 4660 nM, a GI50 [54] of 2270 nM and a TGI [54] of 4560 nM. The GI50 [55] was 1810 nM, the TGI [55] was 3350 nM and the GI50 [56] was 1660 nM. The TGI [56] was 3080 nM, the GI50 [57] was 1890 nM and the TGI [57] was 3400 nM. It also gave a GI50 [58] of 1780 nM and a TGI [58] of 3300 nM.

Source: PubChem BioAssay (NCI)
